Test results reported in patent US8333970B2, “Methods of monitoring the efficacy of anti-CD40 antibodies in treating a subject having an inflammatory or autoimmune disease” (Novartis AG, priority 2005, dated 2012).
Entries after “also recorded” stand apart in the source; their conditions may differ.

Columns and labels:
normal human B cells [1] = assay: Western blot of apoptosis and survival proteins in sCD40L-stimulated B cells; assay type: cell-based
Protocol: In these experiments, 0.6×10^6 normal human B cells from healthy donors (percent purity between 85-95%) were stimulated with 1 μg/ml sCD40L (Alexis Corporation, Bingham, Nottinghamshire, UK). […] Cells were collected at 0, 20 minutes, 2 hours, 6 hours, 18 hours, and 26 hours. Cleaved Caspase-9, cleaved Caspase-3, cleaved PARP, and β-actin controls were detected in cell lysates by Western blot.
In these experiments, 0.6×10^6 normal human B cells from healthy donors (percent purity between 85-95%) were stimulated with 1 μg/ml sCD40L (Alexis Corporation, Bingham, Nottinghamshire, UK). […] Cells were collected at 0, 20 minutes, 2 hours, 6 hours, 18 hours, and 26 hours. Mcl-1, XIAP, CD40, and β-actin controls were detected in cell lysates by Western blot.
In these experiments, 0.6×10^6 normal human B cells from healthy donors percent purity between 85-95%) were stimulated with 1 μg/ml sCD40L (Alexis Corporation, Bingham, Nottinghamshire, UK). […] Cells were collected at 24 hours. Cleaved PARP, and β-actin controls were detected in cell lysates by Western blot.
In these experiments, 0.6×10^6 normal human B cells from healthy donors (percent purity between 85-95%) were stimulated with 1 μg/ml sCD40L (Alexis Corporation, Bingham, Nottinghamshire, UK). […] Cells were collected at 22 hours. Mcl-1, XIAP, cleaved PARP, and β-actin controls were detected in cell lysates by Western blot.

[2] = test system: CD40-expressing target cells; assay: Antibody dependent cellular cytotoxicity (ADCC); assay type: cell-based; settings: native antibodies
Source text: (§1) 2, 2000, and PCT International Application No. PCT/US01/30857, also titled “Human Anti-CD40 Antibodies,” filed Oct. 2, 2001, both of which are herein incorporated by reference in their entirety.
Clones from 7 other hybridomas were identified as having antagonistic activity. Based on their relative antagonistic potency and ADCC activities, two hybridoma clones were selected for further evaluation (Table 1 below). They are named 131.2F8.5.9 (5.9) and 153.8E2.D10.D6.12.12 (12.12).

[3] = test system: pre-clinical tumor models; assay: Pre-clinical tumor models; assay type: in vivo
[4] = test system: B cells from normal human subjects; assay: In vitro proliferation of normal human B cells / lymphocytes; assay type: cell-based
Source text: as §1
(§2) 4, 2003, Nov. 26, 2003, and Apr. 27, 2004, and assigned U.S. Patent Application Nos. 60/517,337 , 60/525,579, and 60/565,710, respectively, and International Patent Application No. PCT/US2004/037152, also entitled “Antagonist Anti-CD40 Monoclonal Antibodies and Methods for Their Use,” filed Nov. 4, 2004; the contents of each of which are herein incorporated by reference in their entirety.

monocytes = assay: CD40L-induced production of VEGF; assay type: cell-based
Source text: In another experiment, CD40L-induced production of VEGF in monocytes is examined in a manner similar to that described above.

normal human B cells [5] = assay: Western blot of phosphorylated signaling proteins in sCD40L-stimulated B cells; assay type: cell-based; settings: 1 μg/ml sCD40L, 20 minutes
Protocol: In these experiments, 1.0×10^6 normal human B cells from healthy donors (percent purity between 85-95%) were stimulated with 1 μg/ml sCD40L (Alexis Corporation, Bingham, Nottinghamshire, UK). […] Cells were collected at 0 and 20 minutes. Phosphorylated IKKα (Ser180) and IKKβ (Ser 181) and total IKKβ controls were detected in cell lysates by Western blot.
In these experiments, 1.0×10^6 normal human B cells from healthy donors (percent purity between 85-95%) were serum starved in 1% FBS-containing media and stimulated with 1 μg/ml sCD40L (Alexis Corporation, Bingham, Nottinghamshire, UK). […] Cells were collected at 0 and 20 minutes. Phospho-IKKα, phospho-IKKβ, total IKKβ, phospho-ERK, total ERK, phospho-AKT, total AKT, phospho-p38, and total p38 were detected in cell lysates by Western blot.
In these experiments, 1.0×10^6 normal human B cells from healthy donors (percent purity between 85-95%) were serum starved in 1% FBS-containing media and stimulated with 1 μg/ml sCD40L (Alexis Corporation, Bingham, Nottinghamshire, UK). […] Cells were collected at 0 and 20 minutes. Phospho-ERK, phospho-AKT, total AKT, phospho-IKKα/β, and […] were detected in cell lysates by Western blot.

normal human B cells [6] = assay: Western blot of survival and signaling markers, rhsCD40L-stimulated B cells (Example 5, FIG. 1); assay type: cell-based
Source text: Cells were lysed and whole cell lysates resolved by SDS-PAGE and Western blotting using antibodies specific to human cPARP, Mcl-1, Bcl-xl, p-Akt, and p-p38 MAPK. All membranes were stripped and re-probed for either β-actin or total Akt or p38 MAPK protein, as appropriate.

cell-surface CD40 = cell-surface CD40 (Homo sapiens, UniProt P25942); assay: Flow cytometric (FACS) assay of CD40 binding and CD40-ligand blocking
Source text: as §1

[7] = molecular target: T1, CD40-TRAF2/3 signaling complex (Homo sapiens, UniProt P25942); assay: CD40 immunoprecipitation, TRAF2/TRAF3 Western blot; assay type: cell-based; settings: 1 μg/ml sCD40L, 20 minutes
T1 construct: normal human B cells from healthy donors; endogenous in cells; host or cells: normal human B cells from healthy donors
Protocol: In these experiments, 4.0×10^6 normal human B cells from healthy donors (percent purity between 85-95%) were serum starved for four hours in 1% FBS-containing media and stimulated with 1 μg/ml sCD40L (Alexis Corporation, Bingham, Nottinghamshire, UK) for 20 minutes. Cells were collected at 0 and 20 minutes. CD40 was immunoprecipitated using polyclonal anti-CD40 (Santa Cruz Biotechnology, CA), and was probed in a Western blot with anti-TRAF2 mAb (Santa Cruz Biotechnology, CA), anti-TRAF3 mAb (Santa Cruz Biotechnology, CA), and anti-CD40 mAb (Santa Cruz Biotechnology, CA).

[8] = test system: primary cancer cells from NHL patients; assay: ADCC on primary cancer cells; assay type: cell-based, human; settings: in vitro
Source text: as §2

[9] = 1 μg/ml sCD40L, 10 μg/ml antibody, 0 to 26 hours
[10] = 1 μg/ml sCD40L, 0.5, 2 and 10 μg/ml antibody, 22 hours
[11] = 2 μg/ml rhsCD40L, 10 μg/ml antibody, 24 hr

Sequence of cell-surface CD40 (P25942 21-277): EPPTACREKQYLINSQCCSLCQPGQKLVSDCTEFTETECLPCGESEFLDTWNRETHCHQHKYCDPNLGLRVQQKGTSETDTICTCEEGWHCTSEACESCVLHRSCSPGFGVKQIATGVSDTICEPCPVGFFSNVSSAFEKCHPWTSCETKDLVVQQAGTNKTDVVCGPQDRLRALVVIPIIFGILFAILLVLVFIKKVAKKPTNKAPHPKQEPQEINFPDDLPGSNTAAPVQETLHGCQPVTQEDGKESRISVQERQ
T1 sequence (P25942 21-277, one chain of several): as the sequence (P25942 21-277) above

Substance: CHIR-12.12: fully human anti-CD40 monoclonal antibody of the IgG1 isotype, hybridoma 153.8E2.D10.D6.12.12, ATCC PTA-5543, SEQ ID NO:2 and 4
- cleaved Caspase-9, cleaved Caspase-3, cleaved PARP (normal human B cells [1]; [9]): increased cleavage of Caspase-9, Caspase-3, and PARP; also recorded: resulted in an increase of these cleavage products
- expression of Mcl-1 and XIAP over time (normal human B cells [1]; [9]): reduction of XIAP and Mcl-1; also recorded: resulted in a decrease in expression of these proteins
- PARP cleavage (normal human B cells [1]; 1 μg/ml sCD40L, 0.01-1.0 μg/ml antibody, 24 hours): increase of PARP cleavage in sCD40L stimulated cells in a dose-dependent manner
- Mcl-1 and XIAP expression (normal human B cells [1]; [10]): reduced Mcl-1 and XIAP expression
- cleaved PARP expression (normal human B cells [1]; [10]): increased cleaved PARP expression
- ADCC activity, killing of CD40-expressing target cells [2]: have ADCC activity; also recorded: able to kill CD40-expressing target cells
- anti-tumor potency compared with rituximab [3]: more potent anti-tumor antibody than is rituximab
- CD40L-induced lymphocyte proliferation ([4]; human peripheral blood lymphocytes): inhibits CD40L-induced lymphocyte proliferation
- effect on CD40 ligand-mediated proliferation of normal B cells ([4]; in vitro): act as antagonist anti-CD40 antibodies; also recorded: inhibit in vitro CD40 ligand-mediated proliferation of normal B cells
- induction of proliferation of human lymphocytes (agonist activity) ([4]; lymphocytes from normal subjects, antibody alone): do not induce strong proliferation; also recorded: does not induce the proliferation of human peripheral blood lymphocytes
- CD40L-induced production of VEGF (monocytes): inhibit CD40L-induced production of VEGF
- phosphorylation of IKKα (Ser180) and IKKβ (Ser 181) (normal human B cells [5]; 10 μg/ml antibody): abrogated this response to sCD40L stimulation
- IKKα/β, ERK, AKT and p38 phosphorylation (normal human B cells [5]; serum starved, 1 and 10 μg/ml antibody): inhibited phosphorylation; also recorded: abrogated the effects of sCD40L stimulation on these signaling pathways
- phospho-ERK, phospho-AKT, phospho-IKKα/β, compared with PI3K/AKT and MEK inhibitors (normal human B cells [5]; serum starved): abrogated the phosphorylation of all of these signal transduction molecules
- expression of anti-apoptotic proteins Mcl-1 and Bcl-xl (normal human B cells [6]; [11]): inhibited the expression of the anti-apoptotic proteins Mcl-1 and Bcl-xl
- phosphorylation of Akt and p38 MAPK (normal human B cells [6]; [11]): inhibiting the phosphorylation of the downstream signaling proteins
- CD40L-induced signaling and survival of normal human B cells (normal human B cells [6]; FIG. 1): blocked
- specific binding to human CD40 (cell-surface CD40; FACS analysis): bind specifically to human CD40
- displacement of CD40-ligand pre-bound to cell surface CD40 (cell-surface CD40; flow cytometric assays): displace the pre-bound CD40-ligand; also recorded: can compete off CD40-ligand pre-bound to cell surface CD40
- prevention of CD40-ligand binding to cell-surface CD40 (cell-surface CD40; flow cytometric assays): prevent the binding of CD40-ligand to cell-surface CD40; also recorded: can prevent CD40-ligand binding
- CD40 expression [7]: no changes in CD40 expression
- formation of the CD40-TRAF2/3 signaling complex [7]: abrogated formation of the CD40-TRAF2/3 signaling complex
- killing of primary cancer cells by ADCC [8]: kill primary cancer cells from NHL patients by ADCC
